Laboratory results: paper PMC5431435, “A short artificial antimicrobial peptide shows potential to prevent or treat bone infections” (Scientific Reports, 2017)

Legend:
[1] = system: human primary osteoblast-like cells; assay type: cell-based
Experimental: (1) For the cytotoxicity test, 1 × 10^4 cells were seeded in 48-well plates with cultivation medium (CM) DMEM/Ham’s F-12 (D/H; Biochrom, Germany) + 10% fetal calf serum (FCS; Biochrom, Germany) + 1% penicillin/streptomycin (P/S; Biochrom, Germany) + 0.05 mM L-ascorbic-2 phosphate (L-Asc) + 0.05 mM β-glycerolphosphate (β-Glyc) and incubated overnight at 37 °C, 5% CO2 and 95% relative humidity. After adding the AMPs (3–542 µg/ml - depending on the AMP) or gentamicin (8–1024 µg/ml) in CM with 1% FCS, without Pen/Strep, cells were cultured for three days. Cell viability was determined with an AlamarBlue® assay before adding the AMPs and after 3 days. Alkaline phosphatase activity was measured on day 3.
Alamar Blue® (Biozol, Germany) was done according to the manufacturer’s instruction.

[2] = system: human primary osteoblast-like cells; assay: Scratch assay (cell migration); assay type: cell-based
Experimental: (3) The effect of AMP2 on cell migration was assessed. Human primary osteoblast-like cells were seeded into 24-well plates and cultured in cultivation media. After reaching confluence, medium was removed and a cross scratch was made using a 10 µl pipette tip using a modified protocol. […] Using ImageJ software (version 1.4.8.; https://imagej.nih.gov/ij/) the diameter of the scratch was measured and the closure over time calculated (n = 3).

[3] = system: S. aureus internalized in human primary osteoblast-like cells; assay: Effect against internalized bacteria; assay type: cell-based, Staphylococcus aureus; details: CM with 1% FCS, n = 7
Experimental: Human primary osteoblast-like cells were cultivated in 24-well plates with cultivation medium until they reached a minimum confluence of 80%. For the experiment, cells were washed and S. aureus (ATCC 29213) in cultivation medium added (~2 × 10^7 cfu/ml). After an incubation of 45 minutes, extracellular bacteria were killed using 200 µg/ml gentamicin dissolved in CM with 10% FCS, without P/S. After 1 hour incubation, gentamicin solution was removed, cells washed three times and AMP2 (33 and 67 µg/ml) in CM with only 1% FCS + no P/S added for 4 and 24 hours. As reference, 7.5 µg/ml rifampicin was used. All incubation steps were done in an incubator with 37 °C, 95% humidity and 5% CO2. For determination of the internalized bacteria, cells were lysed and the supernatant plated on CA plates. Experiment were done with n = 7.

S. epidermidis biofilms = assay: FISH of biofilm grown on polyurethane waver; assay type: cell-based, Staphylococcus epidermidis; details: n = 10 pictures
Experimental: Fluorescence in situ hybridization (FISH) was used to visualize the effect of the AMP2 on a biofilm. S. epidermidis (PIA 8400) biofilm was grown on 5 × 8 mm polyurethane (PU) waver (Epurex Films, Germany) in the incubator at 37 °C for 72 hours under aerobic conditions. After biofilm formation, medium was replaced by MH^++ medium containing different concentrations of the AMP2 (4 or 8 µg/ml) or phosphate buffered saline as control. After further 24 hours of incubation on a rotation shaker, waver were removed, fixed and embedded in methylmethacrylate (Technovit 8100, Kulzer, Germany) and sectioned as described elsewhere. To visualize the biofilm, samples were stained with nucleic acid stain DAPI and the Cy3-labeled Staphylococcus-specific FISH-probe STAPHY (5′[…]3′, biomers, Germany) as published, [52]. A nonsense probe NON338 labeled in Cy5 was used to exclude unspecific probe binding. After incubation in a dark, humid chamber for 2 hours at 50 °C, the slides were rinsed with sterile water, dried, and mounted using Vectashield mounting medium (Vector Laboratories, Burlingame, CA). Image analysis was done using an epifluorescence microscope (Axioplan 2; Carl Zeiss, Jena, Germany) equipped with narrow band filter sets (AHF Analysentechnik, Germany). Image acquisition was performed with an AxioCam MRm (Zeiss, Germany) making use of the AxioVision 4.4 software. Digital image analysis was performed with the daime software. Per group 10 pictures were randomly chosen and analyzed.

planktonic S. aureus = assay: MIC by isothermal microcalorimetry, planktonic bacteria; assay type: cell-based, Staphylococcus aureus; details: all three tested bouillons (MH++, MH+, MH−), heat flow 24 hours, n = 3
Experimental: Mueller-Hinton II bouillon with adjusted cations (MH^++; BBL, Germany), Mueller-Hinton bouillon with low cations (MH^+; with 3-4 mg/l Ca^2+ and 5-6 mg/l Mg^2+; Oxoid, Germany) and Mueller-Hinton bouillon without cations (MH^-; Merck, Germany). AMP2 concentrations of 2-33 μg/ml were tested with the three different bouillons and gentamicin concentrations of 0.125-2 μg/ml were analyzed with MH^++. Staphylococcus aureus (ATCC 29213, 300 μl with 10^5 cfu/ml) was added to each microcalorimetry glass ampoule (Waters; […] The ampoules were hermetically sealed and heat flow (W) was measured for 24 hours in the calorimeter TAM III (TA Instruments, USA). […] ROBU […], Germany) in MH^++ bouillon at 37 °C in an aerobe atmosphere for 24 hours. […] Beads were washed again and added to the glass ampoule with fresh MH^++ bouillon. The total heat (J) was measured for 48 hours in the calorimeter. A concentration, which inhibits minimum 90% of biofilm, can be defined as the minimal biofilm inhibitory concentration (MICB). All samples were tested with n = 6.

[4] = system: human primary osteoblast-like cells; details: differentiation medium with 17 or 133 µg/ml AMP2, days 0, 7, 14, 21
Experimental: Confluent cells were cultured for 21 days in cultivation medium (CM), differentiation medium (DM: D/H + 10% FCS + 1% P/S + 0.5 mM L-Asc + 10 mM β-Glyc + 100 nM dexamethasone + 1.5 mM calcium chloride) and DM with a low (17 µg/ml) and a high (133 µg/ml) AMP2 concentration. Medium was changed every 3–4 days and fresh AMP was added by each change. Cells from two donors were used and the experiments were done in triplicate (n = 6).
Cells were incubated with 0.13% w/v 4-nitrophenyl phosphate disodium salt hexahydrate (Sigma-Aldrich, Germany) dissolved in 0.1 M AP-buffer (50 mM glycine, 100 mM Tris-Base, 1 mM MgCl2 in dH2O) at pH 10.5 for 30 min at 37 °C and absorbance was measured at 405 nm wavelength. […]
Cells were fixed with 3.7% v/v formalin for 10 min at RT and incubated with 0.5% w/v alizarin red (Sigma-Aldrich, Germany) in dH2O for 10 min at RT. Quantification was done by removing staining with 5% w/v SDS in 5 mM HCl and measuring absorbance at 570 nm.
RNA was isolated after 0, 7, 14 and 21 days in culture using the NucleoSpin RNA Kit (Macherey Nagel, Germany). […] For all primers, amplification efficiencies were analyzed and mean normalized expression (MNE) ratios were calculated using the ΔΔCt method with efficiency correction and normalization to the control (d0 of differentiation) and 18 S ribosomal RNA used as a reference gene.

[5] = 4 µg/ml AMP2, 24 h in MH++ on 72 h biofilm

KRRWRIWLV [AMP2]
concentrations with no negative effect on cell viability [1]: < 267 µg/mL | concentrations with significant inhibition of viability compared to the control group [1]: ≥ 267 µg/mL | migration after 24 hours ([2]; 67 µg/ml AMP2): reduced the migration of cells | gap size after 48 hours ([2]; 67 µg/ml AMP2, 0.1% FCS, gap at 0 hours = 100%): 71% | migration after 24 hours ([2]; 133 µg/ml AMP2 (data not shown)): no migration was observed | gap after 48 hours ([2]; 133 µg/ml AMP2, 0.1% FCS): still complete open | free-area after 24 hours ([2]; 4–33 µg/ml AMP2 (range also covers positive control and CM without AMP2), 0.1% FCS, gap at 0 hours = 100%): 50–66% | cell-free area after 48 hours ([2]; AMP2 concentrations up to 33 µg/ml, 0.1% FCS, gap at 0 hours = 100%): 12–28% | internalized bacteria compared to 0 μg/ml AMP [= 100%] ([3]; 33 μg/ml, 4 h): 39% | internalized bacteria compared to 0 μg/ml AMP [= 100%] ([3]; 33 μg/ml, 24 h): 3% | internalized bacteria compared to 0 μg/ml AMP [= 100%] ([3]; 67 μg/ml, 4 h): 16% | internalized bacteria compared to 0 μg/ml AMP [= 100%] ([3]; 67 μg/ml, 24 h): 0.18% | reduction of FISH-positive (Cy3) area (S. epidermidis biofilms; [5]): 86% | reduction of the biofilm area (DAPI) compared to the untreated group (S. epidermidis biofilms; [5]): up to 76% | reduction of FISH-positive (Cy3) area (S. epidermidis biofilms; 8 µg/ml AMP2, 24 h in MH++ on 72 h biofilm): 90% | MIC (calorimetry) (planktonic S. aureus): 8 µg/mL | effect on the osteogenic differentiation (expression of RUNX2, AP, Col1) [4]: no effect
